# Test system: HEK293 cells
# Experiment: Preliminary screening as DNA vectors, GFP transfection of HEK293 cells
# Assay type: cell-based
# Conditions: amino lipid/DOPE liposome with 75 ng plasmid DNA (psin-EGFP-IRES-Puro); number of GFP-expressing cells divided by total nuclei (Hoechst)
# In short: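 First, amino lipid and DOPE were vortexed in sodium acetate buffer (pH 5.6) to form liposomes. Next, these were held with 75 ng EGFP plasmid at room temperature for 30 min. Finally, HEK293 cells were added, cultured at 37° C., Hoechst-stained, and GFP+/total nuclei scored by imaging.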
row,Compound,Absolute DNA transfection efficiency in HEK293 cells
1,CCCCCCCCCCCCCCCNc1nc(NCCCN2CCN(C)CC2)nc(SCCCCCCCCCC)n1 [S10N15 D9],4.1%
2,CCCCCCCCSc1nc(NCCN2CCN(C)CC2)nc(SCCCCCCC)n1 [S7S8 D5],11.2%
3,CCCCCCCCCNc1nc(NCCN2CCN(C)CC2)nc(SCCCCCCCC)n1 [S8N9 D5],35.9%
4,CCCCCCCCCCCCCCCCNc1nc(NCCN2CCOCC2)nc(SCCCCCCCCCCCCCCC)n1 [S15N16 D2],0.0%
5,CCCCCCCCCCCCCCCSc1nc(NCCCCCCC)nc(NCCCN(C)C)n1 [S15N7 D6],32.1%
6,CCCCCCCCCCCCCNc1nc(NCCCN2CCN(C)CC2)nc(SCCCCCCCCCC)n1 [S10N13 D9],0.4%
7,CCCCCCCCCCCCSc1nc(NCCN2CCN(C)CC2)nc(SCCCCCCC)n1 [S7S12 D5],9.6%
8,CCCCCCCCCSc1nc(NCCCN2CCN(C)CC2)nc(SCCCCCCCC)n1 [S8S9 D9],23.5%
9,CCCCCCCNc1nc(NCCN2CCN(C)CC2)nc(SCCCCCC)n1 [S6N7 D5],3.7%
10,CCCCCCCCCCCCCCCNc1nc(NCCN2CCOCC2)nc(SCCCCCCCCCCCC)n1 [S12N15 D2],0.0%
11,CCCCCCCCCCCCN(CCCCCCCCCCCC)c1nc(NCCN2CCN(C)CC2)nc(SCCCCCCCC)n1 [S8^2N12 D5],0.8%
12,CCCCCCCCCCCCN(CCCCCCCCCCCC)c1nc(NCCN2CCN(C)CC2)nc(SCCCCCC)n1 [S6^2N12 D5],0.0%
13,CCCCCCCCCCCCCCCCSc1nc(NCCCCCCCCCCCC)nc(NCCN2CCN(C)CC2)n1 [S16N12 D5],1.9%
14,CCCCCCCCCCCCCNc1nc(NCCCN2CCOCC2)nc(SCCCCCCC)n1 [S7N13 D8],17.3%
15,CCCCCCCCCCSc1nc(NCCCCCC)nc(NCCN2CCCCC2)n1 [S10N6 D4],5.7%
16,CCCCCCCCCCCCCNc1nc(NCCCN(C)C)nc(SCCCCCCC)n1 [S7N13 D6],43.2%
17,CCCCCCCCCCCCCCSc1nc(NCCCCCCCCCCCCC)nc(NCCN2CCOCC2)n1 [S14N13 D2],0.0%
18,CCCCCCCCCCCCCCCSc1nc(NCCN(C)C)nc(SCCCCCCC)n1 [S7S15 D1],9.4%
19,CCCCCCCCCCSc1nc(NCCN2CCOCC2)nc(SCCCCCC)n1 [S6S10 D2],8.3%
20,CCCCCCCCCCCCCCCCCCSc1nc(NCCCCCCCCC)nc(NCCN2CCCC2)n1 [S18N9 D3],20.4%
21,CCCCCCCCCCCCSc1nc(NCCCCCCCC)nc(NCCN2CCN(C)CC2)n1 [S12N8 D5],13.8%
22,CCCCCCCCCCCCCCSc1nc(NCCCCCC)nc(NCCCN(C)C)n1 [S14N6 D6],30.1%
23,CCCCCCCCCCCCCCCCCCNc1nc(NCCCN2CCN(C)CC2)nc(SCCCCCCCCCCCC)n1 [S12N18 D9],0.2%
24,CCCCCCCCCCCCCCCCCCNc1nc(NCC2CCN(C)CC2)nc(SCCCCCC)n1 [S6N18 D10],13.0%
25,CCCCCCCCCCCCCNc1nc(NCCN2CCN(C)CC2)nc(SCCCCCCCCCC)n1 [S10N13 D5],2.1%
26,CCCCCCCCCSc1nc(NCC2CCN(C)CC2)nc(SCCCCCCC)n1 [S7S9 D10],16.3%
27,CCCCCCCCCCCCCCCCCCNc1nc(NCCCN2CCOCC2)nc(SCCCCCCCCCCC)n1 [S11N18 D8],4.4%

row,Compound,Absolute DNA transfection efficiency in HEK293 cells
1,CCCCCCCSc1nc(NCCCCCC)nc(NCCCN2CCN(C)CC2)n1 [S7N6 D9],20.3%
2,CCCCCCCCCCCCCCCCCCNc1nc(NCC2CCN(C)CC2)nc(SCCCCCCCC)n1 [S8N18 D10],9.6%
3,CCCCCCCCCSc1nc(NCCCCCCC)nc(NCCCN2CCOCC2)n1 [S9N7 D8],6.1%
4,CCCCCCCCCCCCCCCCNc1nc(NCC2CCN(C)CC2)nc(SCCCCCC)n1 [S6N16 D10],19.7%
5,CCCCCCCCCCCCCCCCCCSc1nc(NCCCCCCCCCCCCCCC)nc(NCCN2CCN(C)CC2)n1 [S18N15 D5],0.0%
6,CCCCCCCCCCCCCCCCNc1nc(NCCCN(C)C)nc(SCCCCCCCCC)n1 [S9N16 D6],29.7%
7,CCCCCCCCCCCCCCSc1nc(NCCCCCCCCCCCC)nc(NCCN2CCCCC2)n1 [S14N12 D4],3.8%
8,CCCCCCCCCCCCCCCCCCNc1nc(NCCN2CCOCC2)nc(SCCCCCCC)n1 [S7N18 D2],16.6%
9,CCCCCCCCCCCCCCCCCCNc1nc(NCCCN2CCN(C)CC2)nc(SCCCCCCCCCCCCCCCC)n1 [S16N18 D9],0.0%
10,CCCCCCCCCCCCCCCNc1nc(NCCN2CCCCC2)nc(SCCCCCCCCCC)n1 [S10N15 D4],4.1%
11,CCCCCCCCCCCCCCCNc1nc(NCCN2CCN(C)CC2)nc(SCCCCCC)n1 [S6N15 D5],22.3%
12,CCCCCCCCCCCCCCCNc1nc(NCCN(CC)CC)nc(SCCCCCCCC)n1 [S8N15 D7],2.2%
13,CCCCCCCCCCCCCCCNc1nc(NCCCN2CCOCC2)nc(SCCCCCCCCCC)n1 [S10N15 D8],5.1%
14,CCCCCCCCCCCCCCCNc1nc(NCCN2CCCC2)nc(SCCCCCCCCCCCC)n1 [S12N15 D3],2.0%
15,CCCCCCCSc1nc(NCCN2CCCCC2)nc(SCCCCCCC)n1 [S7S7 D4],0.0%
16,CCCCCCCCCSc1nc(NCCCCCC)nc(NCCCN2CCOCC2)n1 [S9N6 D8],7.8%
17,CCCCCCCCCCCCCCCCSc1nc(NCCCCCCCCCCCCC)nc(NCCN(CC)CC)n1 [S16N13 D7],3.7%
18,CCCCCCCCCCCCCCCSc1nc(NCCCCCCCCC)nc(NCCN(CC)CC)n1 [S15N9 D7],16.4%
19,CCCCCCCCCCCCSc1nc(NCCCCCCCC)nc(NCCN2CCCC2)n1 [S12N8 D3],1.5%
20,CCCCCCCCCCCCCCCNc1nc(NCCN(CC)CC)nc(SCCCCCCCCCCC)n1 [S11N15 D7],5.2%
21,CCCCCCCCCSc1nc(NCCN2CCN(C)CC2)nc(SCCCCCCC)n1 [S7S9 D5],12.5%
22,CCCCCCCCCCCCCCCCNc1nc(NCCN2CCOCC2)nc(SCCCCCC)n1 [S6N16 D2],1.4%
23,CCCCCCCCCCCCCCCCCCNc1nc(NCCN(C)C)nc(SCCCCCCCC)n1 [S8N18 D1],4.8%
24,CCCCCCCCCCCSc1nc(NCCCCCCC)nc(NCCCN(C)C)n1 [S11N7 D6],34.0%
25,CCCCCCCCCCCCCCCCSc1nc(NCCCCCC)nc(NCC2CCN(C)CC2)n1 [S16N6 D10],14.5%
26,CCCCCCCCCCCSc1nc(NCCCCCCCC)nc(NCCCN2CCN(C)CC2)n1 [S11N8 D9],23.6%
